Patent publication US20220162221A1, “Imaging Agents” (UCB Biopharma SRL, priority 2017, published 2022)
Values belong to the compound of their own block, whether it stands above or below them.

How the values were obtained:
[1] = test system: D1 receptor; test: In vivo potentiation PET imaging with D1 PAM; design: species or system cynomolgus monkeys (Macaca fascicularis); conditions: FIG. 5, Compound-B 20 mg/kg
Protocol: Two cynomolgus monkeys (Macaca fascicularis) housed at the MPI Research (Mattawan, Mich.), were used as research subjects for the in vivo potentiation PET studies.
Each animal was anesthetized with propofol iv bolus (2.5-5.0 mk/kg) and maintained with propofol iv Continuous Rate Infusion (CRI, 0.1-0.6 mg/kg/min). for at least 30 minutes prior to initiation of Compound-B i.v. dose administration. Several dose levels were administered. […]
Following Compound (−)-Ib administration, arterial blood samples were drawn from the central iliac artery prior to the dosing with Compound (−)-Ib and at 13 time points up to 120 min post-injection of Compound (−)-Ib. All blood samples were collected in anticoagulant tubes and stored on wet ice until quantification for radioactivity by gamma counter, measure of Compound (−)-Ib parent fraction in plasma over time by HPLC and Compound (−)-Ib ex vivo stability in blood.
Reconstructed dynamic brain PET images were transferred and analyzed using the image processing PMOD software package (PMOD Technologies, Zurich, Switzerland). […] Subsequent PET images acquired during drug studies were aligned first to the baseline images and then transformed into the common MR template space using the already calculated transformation from the baseline images. […]

[2] = target: hD1R in SK-N-MC cells (Homo sapiens, UniProt P21728); test: cAMP HTRF D1 functional assay; conditions: for Erel: relative efficacy compared to dopamine maximum response, SK-N-MC cells
Protocol: The reaction was terminated by consecutive additions of 10 μL d2 detection reagent and the cryptate reagent both diluted in lysis buffer. After a period of 60 min at room temperature, changes in HTRF emission ratio were determined and transformed in [cAMP]i using a standard curve.

[3] = test system: D1 receptor; test: In vivo PET imaging in cynomolgus monkey
Protocol: Experiment was performed in a cynomolgus monkey (Female, body weight 6.02 kg). The monkeys were sedated using intramuscular injection of ketamine and kept anesthetized using a mixture of sevoflurane, oxygen and medical air for the duration of the experiment. A baseline scan was performed following intravenous administration of 141 MBq of (−)-(Ia) at a specific activity of 795 GBq/μmol and PET images of the brain were acquired using the Siemens HRRT PET scanner (Siemens Preclinical Solutions, Knoxville, Tenn.).
(§1) Data were acquired for 123 min and binned into sinograms with the following frame timing: 9×20 sec; 3×1 min; 5×3 min; and 17×6 min. Regions of interest used in this study were caudate nucleus, putamen, cerebellum, frontal cortex, occipital cortex, globus pallidus, midbrain, ventral striatum, thalamus and temporal cortex. Registration parameters were obtained to apply the regions of interests to the PET scan and regional time-activity curves (TACs) were generated. Venous blood samples were withdrawn at 4, 15, 30, 60, 90, 120 minutes after (−)-(Ie) administration for metabolite analysis.

[4] = target: T1, D1 receptor (Macaca mulatta, UniProt O77680); test: Autoradiography on NHP brain slices; type: binding
T1 construct: 12 μm brain slices were prepared from fresh frozen NHP brain hemisphere; tissue Motac (Bordeaux, France); host or cells: Macaca mulatta brain sections (caudate putamen)
Protocol: Brain sections from non-human primate (NHP) Macaca mulatta were provided by Motac (Bordeaux, France) where all animal experiments were performed in accordance with european animal use ethical guidance and legislation.
12 μm brain slices were prepared from fresh frozen NHP brain hemisphere and were placed on glass microscopy slide. Autoradiography experiment was performed at room temperature in HBSS HEPES buffer (pH 7.4). NHP brain sections first equilibrated for 30 min before to be incubated for one hour with [^3H]compound in 1% DMSO. Slides were then washed in iced-cold 50 mM Tris-HCl buffer (pH 7.4) for 5 min followed by two washes in iced-cold distilled water. Sections were dried under atmospheric pressure at room temperature. Radioactivity on slice was either measured indirectly after exposure of slides to a phosphor screen, either using a direct counter. In every autoradiography experiments, a [^3H]standard was included for quantification and the NSB was defined as the residual binding of [^3H]compound observed in the presence of 10 μM non-labeled compound.

[5] = target: human D1R (Homo sapiens, UniProt P21728); test: Radioligand binding on HEK hD1R membranes with or without D1 PAM; design: expressed in transfected cells; host or cells: HEK cells, transient transfection, pcDNA3.1; membrane preparation
Protocol: Transient transfection of human dopamine D1R was performed with pcDNA3.1 vector in human embryonic kidney cells (HEK hD1R).
The membrane of HEK hD1R cells were used to measure radioligand binding. 48 hours post transfection, cells were pelleted by centrifugation at 1,500 g and 4° C. for 10 min. Pellet was washed once with ice-cold phosphate buffered saline solution (PBS) and centrifuged as described just above. Pellet was homogenized in a buffer containing 15 mM Tris-HCl, 0.3 mM ethylene diamine tetraacetic acid, 1 mM ethylene glycol tetraacetic acid, 2 mM MgCl2 (pH 7.5) and complemented with protease inhibitor cocktail. The homogenate was freeze-thawed twice and equilibrated at 25° C. followed by a 10 min DNAse (10 U/ml) treatment. Subsequently, the solution was centrifuged at 40,000 g and 4° C. for 30 min. Finally, the pellet was resuspended in 20 mM Tris-HCl buffer (pH 7.4) containing 250 mM sucrose and store at −80° C. until D1 radioligand binding assay. […] At the end of the incubation period, the protein-bound radioligand was recovered by filtration through pre-soaked GF/B glass fiber filters. Filters were washed with at least 4 times the assay volume of ice-cold 50 mM Tris-HCl buffer (pH 7.4). […] The filters were dried and the radioactivity determined by liquid scintillation.
Competition/potentiation binding experiments were carried out at constant (−)-(Ic) concentration (1-4 nM) and 10 increasing concentrations of (−)-(Ic) or compound b (10^−10 M to 10^−5 M).

[6] = Metabolite profile by radio-HPLC of venous blood samples; type: in vivo, cynomolgus monkey; conditions: for metabolites detected (words): venous blood, radio-HPLC
Protocol: as §1
The profile of metabolites of (−)-Ia was determined by radio-HPLC analysis of the venous blood samples collected post-administration at several timepoints. The parent fraction in plasma is 85% at 15 minutes, 60% at 30 minutes and still about 45% at 60 minutes.

[7] = saturation binding, 10 μM D1 PAM, HEK hD1R membranes (FIG. 3B)
[8] = Logan reference tissue model, cerebellum as reference

human D1R, sequence (P21728 whole entry): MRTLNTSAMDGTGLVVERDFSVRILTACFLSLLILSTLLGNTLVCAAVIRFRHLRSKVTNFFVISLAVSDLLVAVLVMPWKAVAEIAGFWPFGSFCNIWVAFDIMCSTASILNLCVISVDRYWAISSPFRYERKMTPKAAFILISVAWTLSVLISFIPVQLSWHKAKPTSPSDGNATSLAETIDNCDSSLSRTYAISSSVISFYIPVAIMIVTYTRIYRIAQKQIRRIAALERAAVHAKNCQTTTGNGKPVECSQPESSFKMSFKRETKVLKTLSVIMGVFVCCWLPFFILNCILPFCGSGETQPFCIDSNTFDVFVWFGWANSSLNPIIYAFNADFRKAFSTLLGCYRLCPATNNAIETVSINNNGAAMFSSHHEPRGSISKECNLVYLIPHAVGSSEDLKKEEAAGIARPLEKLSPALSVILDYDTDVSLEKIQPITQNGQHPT
hD1R in SK-N-MC cells, sequence (P21728 whole entry): as above
T1 sequence (O77680 whole entry): as the sequence (P21728 whole entry) above, with N311I counted along it

Compound: Cc1c(-c2ccc(Oc3nccc4occc34)cc2C[18F])n(C)c(=O)[nH]c1=O [(−)-(Ib), [^18]-6-(2-(fluoromethyl)-4-(furo[3,2-c]pyridin-4-yloxy)phenyl)-1,5-dimethylpyrimidine-2,4(1H,3H)-dione]
effect of D1 PAM on tracer binding/uptake in vivo (words) [1]: significantly improved binding properties
effect of D1 PAM on tracer binding/uptake in vivo (words) ([1]; listed as (−)-Ib): increased uptake

Compound: Cc1c(-c2ccc(Oc3nccc4occc34)cc2CF)n(C)c(=O)[nH]c1=O (single isomer, unassigned) [(−)-(Ia), [^11C]-6-(2-(fluoromethyl)-4-(furo[3,2-c]pyridin-4-yloxy)phenyl)-1,5-dimethylpyrimidine-2,4(1H,3H)-dione]
brain uptake pattern ([3]; PET images, summed SUV 33-63 minutes): uptake pattern consistent with the reported distribution of D1-like receptors in the brain

Compound: Cc1c(-c2ccc(Oc3nccc4occc34)cc2CF)n([11CH3])c(=O)[nH]c1=O (single isomer, unassigned) [(−)-(Ia), [^11C]-6-(2-(fluoromethyl)-4-(furo[3,2-c]pyridin-4-yloxy)phenyl)-1,5-dimethylpyrimidine-2,4(1H,3H)-dione]
peak uptake SUV ([3]; 5-10 minutes post-administration, across brain regions, iv): 3.5-4
binding potential (BPND), caudate [3, 8]: 0.94
binding potential (BPND), putamen [3, 8]: 0.87
SUV in caudate and putamen ([3]; at 60 minutes): about 2
SUV in cerebellum ([3]; at 60 minutes): about 1
parent fraction in plasma ([6]; at 15 minutes): 85%
parent fraction in plasma ([6]; at 30 minutes): 60%
parent fraction in plasma ([6]; at 60 minutes): about 45%
metabolites detected (words) ([6]; listed as (Ia)): no associated lipophilic metabolite
metabolites detected (words) ([6]; listed as (−)-Ia): only hydrophilic metabolites unlikely to cross the blood-brain barrier have been detected

More lines, main results first:

EC50 [2]: 5.01 nM
agonist-like effect on D1 receptor ([2]; cAMP HTRF): D1 partial agonist-like effect
Erel [2]: 53 ± 13%
Erel ([2]; listed as (−)-I): 53%
Compound: Cc1c(-c2ccc(Oc3nccc4occc34)cc2CF)n(C)c(=O)[nH]c1=O (single isomer, unassigned) [Compound (−)-(I), 6-(2-(fluoromethyl)-4-(furo[3,2-c]pyridin-4-yloxy)phenyl)-1,5-dimethylpyrimidine-2,4(1H,3H)-dione]

specific binding in the presence of a D1 PAM ([4]; NHP brain slices, FIG. 4): significantly increased
Total Binding in caudate putamen (words) ([4]; NHP brain slices, listed as (Ic)): significantly binds in caudate putamen
Total Binding in caudate putamen (words) ([4]; NHP brain slices, listed as (−)-Ic): significant binding
non specific binding ([4]; in the presence of 10 μM compound (I), caudate putamen): 20%
potentiation of radioligand binding by D1 PAM ([5]; low nanomolar radioligand concentration (1-4 nM), FIG. 3C): > 50%
decrease of KD by D1 PAM [5, 7]: 20%
increase of Bmax by D1 PAM [5, 7]: 45%
Compound: [^3H]-6-(2-(fluoromethyl)-4-(furo[3,2-c]pyridin-4-yloxy)phenyl)-1,5-dimethylpyrimidine-2,4(1H,3H)-dione [(−)-(Ic)]
effect of D1 PAM on radioligand binding ([5]; HEK hD1R membranes (FIG. 3)): significantly improved binding properties
